23 compounds from patent US20050197338A1, “Substituted pyrazole urea compounds for the treatment of inflammation” (priority 2003, published 2005) can be followed below.

This assay deals with T1, human IKK-2 (rhIKK-2 homodimer) (Homo sapiens, UniProt O14920).
T1 construct: FLAG (DYKDDDDKD) (C); made in house; host or cells: insect cells (baculovirus, pFastBac)
T1 sequence (O14920 1-756): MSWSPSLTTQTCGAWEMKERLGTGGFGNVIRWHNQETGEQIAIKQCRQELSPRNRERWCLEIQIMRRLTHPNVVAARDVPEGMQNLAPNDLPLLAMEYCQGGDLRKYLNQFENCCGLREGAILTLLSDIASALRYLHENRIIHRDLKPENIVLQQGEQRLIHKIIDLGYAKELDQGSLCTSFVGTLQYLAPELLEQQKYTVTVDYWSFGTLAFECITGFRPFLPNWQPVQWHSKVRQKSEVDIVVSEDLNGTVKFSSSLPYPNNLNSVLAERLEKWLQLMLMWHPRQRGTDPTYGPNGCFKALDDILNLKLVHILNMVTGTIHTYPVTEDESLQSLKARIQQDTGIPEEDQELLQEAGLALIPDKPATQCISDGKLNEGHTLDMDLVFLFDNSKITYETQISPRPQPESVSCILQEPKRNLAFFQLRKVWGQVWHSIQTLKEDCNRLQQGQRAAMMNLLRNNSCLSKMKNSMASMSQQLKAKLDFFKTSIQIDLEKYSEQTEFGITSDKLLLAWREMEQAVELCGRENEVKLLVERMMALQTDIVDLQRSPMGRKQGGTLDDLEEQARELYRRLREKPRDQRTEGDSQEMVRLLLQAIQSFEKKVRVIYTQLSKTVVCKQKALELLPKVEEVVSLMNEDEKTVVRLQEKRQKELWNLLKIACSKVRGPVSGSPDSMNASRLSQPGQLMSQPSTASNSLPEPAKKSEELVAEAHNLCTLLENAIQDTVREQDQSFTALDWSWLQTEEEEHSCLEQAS
As to the kind of experiment: IKK-2 Resin Enzyme Assay (Human IKK-2 Enzyme Assay). The assay is classed as biochemical. Conditions: human IKK-2, resin enzyme assay; read-out: IC50 (μM) hIKK-2. The text has this:
Materials: SAM^2™96 Biotin capture plates were from Promega. Anti-FLAG affinity resin, FLAG-peptide, NP-40 (Nonidet P-40), BSA, ATP, ADP, AMP, LPS (E. coli serotype 0111:B4), and dithiothreitol were obtained from Sigma Chemicals. Antibodies specific for NEMO (IKK-γ) (FL-419), IKK-1 (H-744), IKK-2(H-470) and IκBa(C-21) were purchased from Santa Cruz Biotechnology. Ni-NTA resin was purchased from Qiagen. Peptides were purchased from American Peptide Company. Protease inhibitor cocktail tablets were from Boehringer Mannheim. Sephacryl S-300 column was from Pharmacia LKB Biotechnology. Centriprep-10 concentrators with a molecular weight cutoff of 10 kDa and membranes with molecular weight cut-off of 30 kDa were obtained from Amicon. [γ-^33P] ATP (2500 Ci/mmol) and [γ-^32P] ATP (6000 Ci/mmol) were purchased from Amersham. The other reagents used were of the highest grade commercially available.
Cloning and Expression: cDNAs of human IKK-1 and IKK-2 were amplified by reverse transcriptase-polymerase chain reaction from human placental RNA (Clonetech). hlKK-1 was subcloned into pFastBac HTa (Life Technologies) and expressed as N-terminal His6-tagged fusion protein. The hlKK-2 cDNA was amplified using a reverse oligonucleotide primer which incorporated the peptide sequence for a FLAG-epitope tag at the C-terminus of the IKK-2 coding region (DYKDDDDKD). The hlKK-2:FLAG cDNA was subcloned into the baculovirus vector pFastBac. The rhIKK-2 ([…]) mutant was constructed in the same vector used for wild type rhIKK-2 using a QuikChange™ mutagenesis kit (Stratagene). Viral stocks of each construct were used to infect insect cells grown in 40 L suspension culture. […] Cell lysates were stored at −80° C. until purification of the recombinant proteins was undertaken as described below.
Enzyme Isolation: All purification procedures were carried out at 4° C. unless otherwise noted. Buffers used are: buffer A: 20 mM Tris-HCl, pH 7.6, containing 50 mM NaCl, 20 mM NaF, 20 mM β-Glycerophosphate, 500 μM sodium orthovanadate, 2.5 mM metabisulfite, 5 mM benzamidine, 1 mM EDTA, 0.5 mM EGTA, 10% glycerol, 1 mM DTT, 1× Complete™ protease inhibitors; buffer B: same as buffer A, except 150 mM NaCl, and buffer C: same as buffer A, except 500 mM NaCl.
Isolation of rhIKK-2 homodimer: A 10-liter culture of baculovirus-expressing IKK-2 tagged with FLAG peptide was centrifuged and the cell pellet (MOI=0.1 and 1=72 h) was re-suspended in buffer A. These cells were microfluidized, and centrifuged at 100,000×g for 45 min. Supernatant was passed over a G-25 column equilibrated with Buffer A. Protein peak was collected and incubated with anti-FLAG affinity resin on a rotator overnight in buffer B. The resin was washed in batch with 10-15 bed volumes of buffer C. Washed resin was poured into a column and rhIKK-2 homodimer was eluted using 5 bed volumes of buffer B containing FLAG peptide. 5 mM DTT, 0.1% NP-40 and BSA (concentrated to 0.1% in final amount) was added to the eluted enzyme before concentrating in using an Amicon membrane with a molecular weight cut-off of 30 kDa. Enzyme was aliquoted and stored at −80° C.
IKK-2 Resin Enzyme Assay: IKK-2 kinase activity was measured using a biotinylated IκBα peptide (Gly-Leu-Lys-Lys-Glu-Arg-Leu-Leu-Asp-Asp-Arg-His-Asp-Ser32-Gly-Leu-Asp-Ser36-Met-Lys-Asp-Glu-Glu) (American Peptide Co.). 20 μL of the standard reaction mixture contained 5 μM biotinylated IκBα peptide, 0.1 μCi/reaction [γ-^33P] ATP (Amersham) (about 1×10^5 cpm), 1 μM ATP (Sigma), 1 mM DTT (Sigma), 2 mM MgCl2 (Sigma), 2 mM MnCl2 (Sigma), 10 mM NaF (Sigma), 25 mM Hepes (Sigma) buffer, pH 7.6 and 20 μL enzyme solution and 10 μL inhibitor in a final volume of 50 μL. After incubation at 25° C. for 30 min, 150 μL resin (Dowex anion-exchange resin AG1X8 200-400 mesh) in 900 mM formate, pH 3.0 was added to each well to stop the reaction. Resin was allowed to settle for 1 h and 50 μL of supernatant was removed to a Micolite-2 flat bottom plate (Dynex). […]

Broadly, the IC50 is the concentration at which inhibition is half-maximal. `CCOc1cc(-n2cc(NC(N)=O)c(C(N)=O)n2)ccc1-c1ccccc1O` [Example 232, 4-[(aminocarbonyl)amino]-1-(2-ethoxy-2′-hydroxy-1,1′-biphenyl-4-yl)-1H-pyrazole-3-carboxamide]: the IC50 was 10.3 µM.

Consider `CC(=O)Nc1cccc(-c2cccc(-n3cc(NC(N)=O)c(C(N)=O)n3)c2)c1` [Example 76, 1-[3′-(acetylamino)-1,1′-biphenyl-3-yl]-4-[(aminocarbonyl)amino]-1H-pyrazole-3-carboxamide], for which the IC50 was 0.9 µM.

On to `NC(=O)Nc1nn(-c2ccc(-c3ccc(F)c(F)c3)cc2)cc1C(N)=O` [Example 114], for which the half-inhibitory concentration (IC50) came out at 3.19 µM.

For the compound `NC(=O)Nc1cn(-c2cccc(-c3cc(Cl)cc(Cl)c3)c2)nc1C(N)=O` [Example 370, 4-[(aminocarbonyl)amino]-1-(3′,5′-dichloro-1,1′-biphenyl-3-yl)-1H-pyrazole-3-carboxamide], the IC50 is above 20 µM.

For `CC(C#N)Oc1ccc(F)cc1-c1ccc(-n2cc(NC(N)=O)c(C(N)=O)n2)cc1` (centres unmarked) [Example 180, 4-[(aminocarbonyl)amino]-1-[2′-(1-cyanoethoxy)-5′-fluoro-1,1′-biphenyl-4-yl]-1H-pyrazole-3-carboxamide], the IC50 was found to be 0.228 µM.

Turning to `NC(=O)Nc1cn(-c2cccc(-c3ccccc3O)c2)nc1C(N)=O` [Example 71, 4-[(aminocarbonyl)amino]-1-(2′-hydroxy-1,1′-biphenyl-3-yl)-1H-pyrazole-3-carboxamide], the IC50 amounted to 2.25 µM.

As to `COc1ccc(CNC(=O)c2ccc(-c3ccc(-n4cc(NC(N)=O)c(C(N)=O)n4)cc3)cc2F)cc1` [Example 150, 4-[(aminocarbonyl)amino]-1-(3′-fluoro-4′-{[(4-methoxybenzyl)amino]carbonyl}-1,1′-biphenyl-4-yl)-1H-pyrazole-3-carboxamide], the IC50 is 0.63 µM.

As for `NC(=O)Nc1cn(-c2ccc(S(=O)(=O)c3ccc(F)cc3)cc2F)nc1C(N)=O` [Example 378, 1-(1-(4-(4-fluorophenylsulfonyl)-2-fluorophenyl)-3-carbamoyl-1H-pyrazol-4-yl)urea], the half-inhibitory concentration (IC50) was 0.315 µM.

Take `NC(=O)Nc1cn(-c2cccc([S+]([O-])c3ccccc3F)c2)nc1C(N)=O` (centres unmarked) [Example 202, 1-(1-(3-(2-fluorophenylsulfinyl)phenyl)-3-carbamoyl-1H-pyrazol-4-yl)urea]: the IC50 was determined as 5.97 µM.

With `CCOc1cc(-n2cc(NC(N)=O)c(C(N)=O)n2)ccc1-c1cccc(OCC#N)c1` [Example 231, 4-[(aminocarbonyl)amino]-1-[3′-(cyanomethoxy)-2-ethoxy-1,1′-biphenyl-4-yl]-1H-pyrazole-3-carboxamide], the IC50 is 4.88 µM.

As to `NC(=O)Nc1cn(-c2ccc(F)cc2)nc1C(N)=O` [Example 212, 4-[(aminocarbonyl)amino]-1-(4-fluorophenyl)-1H-pyrazole-3-carboxamide], the IC50 worked out at 0.844 µM.

On to `NC(=O)Nc1nn(-c2ccc(-c3cc(Cl)ccc3Cl)cc2)cc1C(N)=O` [Example 135], for which the IC50 was 1.66 µM.

Consider `NC(=O)Nc1cn(-c2cccc(-c3ccc(Cl)cc3Cl)c2)nc1C(N)=O` [Example 369, 4-[(aminocarbonyl)amino]-1-(2′,4′-dichloro-1,1′-biphenyl-3-yl)-1H-pyrazole-3-carboxamide], for which the IC50 was 16.7 µM.

Consider `NC(=O)Nc1cn(-c2cccc(-c3ccc(C(F)(F)F)cc3)c2)nc1C(N)=O` [Example 368, 4-[(aminocarbonyl)amino]-1-[4′-(trifluoromethyl)-1,1′-biphenyl-3-yl]-1H-pyrazole-3-carboxamide], for which the IC50 was above 20 µM.

For `CCOc1cc(-n2cc(NC(N)=O)c(C(N)=O)n2)ccc1-c1ccccc1OCC#N` [Example 236, 4-[(aminocarbonyl)amino]-1-[2′-(cyanomethoxy)-2-ethoxy-1,1′-biphenyl-4-yl]-1H-pyrazole-3-carboxamide], the IC50 amounted to 3.05 µM.

Regarding `NC(=O)Nc1cn(-c2ccc3ccccc3c2)nc1C(N)=O` [Example 219, 4-[(aminocarbonyl)amino]-1-(2-naphthyl)-1H-pyrazole-3-carboxamide], the IC50 was determined as 0.175 µM.

For `Cc1cc(-n2cc(NC(N)=O)c(C(N)=O)n2)ccc1Sc1ccc(F)cc1` [Example 297, 1-[4-(4-fluoro-phenylsulfanyl)-3-methyl-phenyl]-4-ureido-1H-pyrazole-3-carboxylic acid amide], the IC50 worked out at 1.94 µM.

As to `COC(=O)c1ccc(-n2cc(NC(N)=O)c(C(N)=O)n2)cc1` [Example 184, methyl 4-{3-(aminocarbonyl)-4-[(aminocarbonyl)amino]-1H-pyrazol-1-yl}benzoate], the IC50 was determined as 5.49 µM.

Regarding `NC(=O)Nc1cn(-c2ccc(Sc3ccc(F)cc3)cc2Cl)nc1C(N)=O` [Example 376, 1-(1-(4-(4-fluorophenylthio)-2-chlorophenyl)-3-carbamoyl-1H-pyrazol-4-yl)urea], the IC50 came to 0.31 µM.

Turning to `COc1ccc(-c2cccc(-n3cc(NC(N)=O)c(C(N)=O)n3)c2)cc1` [Example 344, 4-[(aminocarbonyl)amino]-1-(4′-methoxy-1,1′-biphenyl-3-yl)-1H-pyrazole-3-carboxamide], the IC50 was above 20 µM.

Turning to `NC(=O)Nc1cn(-c2ccc(Sc3cccc(F)c3)cc2)nc1C(N)=O` [Example 197, 1-(1-(4-(3-fluorophenylthio)phenyl)-3-carbamoyl-1H-pyrazol-4-yl)urea], the half-maximal inhibitory concentration (IC50) is 0.561 µM.

For the compound `Cc1cc(F)ccc1-c1cccc(-n2cc(NC(N)=O)c(C(N)=O)n2)c1` [Example 345, 4-[(aminocarbonyl)amino]-1-(4′-fluoro-2′-methyl-1,1′-biphenyl-3-yl)-1H-pyrazole-3-carboxamide], the IC50 is above 20 µM.

Consider `NC(=O)Nc1cn(-c2ccc([S+]([O-])c3cccc(F)c3)cc2)nc1C(N)=O` (centres unmarked) [Example 201, 1-(1-(4-(3-fluorophenylsulfinyl)phenyl)-3-carbamoyl-1H-pyrazol-4-yl)urea], for which the IC50 worked out at 0.532 µM.
